Reference: the supplement of paper PMC10307832

Legend:
Assay in all cases: relative viability (nuclei count vs DMSO), 5 days (fraction); higher = more cells survive
Ruxolitinib + Olaparib = compound: N#CC[C@H](C1CCCC1)n1cc(-c2ncnc3[nH]ccc23)cn1 [Ruxolitinib] + O=C(c1cc(Cc2n[nH]c(=O)c3ccccc23)ccc1F)N1CCN(C(=O)C2CC2)CC1 [Olaparib] (partner 8 µM)
Summary of the method: (§1)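 Lung cancer cell lines in 1536-well plates were dosed by pin tool the day after seeding, either with one drug alone or with a fixed anchor-drug dose plus five library-drug doses (not always all listed) in √10 steps. After 5 days, cells were fixed and their nuclei stained in one step (final 0.05% Triton X-100, 1% formaldehyde, 1 ug/ml Hoechst), then counted on 4× images. Relative viability is the nuclei count in treated wells divided by that in vehicle wells. Values are medians of duplicate plates.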

VE-821 + Trametinib = compound: CS(=O)(=O)c1ccc(-c2cnc(N)c(C(=O)Nc3ccccc3)n2)cc1 [VE-821] + CC(=O)Nc1cccc(-n2c(=O)n(C3CC3)c(=O)c3c(Nc4ccc(I)cc4F)n(C)c(=O)c(C)c32)c1 [Trametinib] (partner 0.02 µM)
Summary of the method: as §1

Ruxolitinib + Phenformin = compound: N#CC[C@H](C1CCCC1)n1cc(-c2ncnc3[nH]ccc23)cn1 [Ruxolitinib] + N=C(N)NC(=N)NCCc1ccccc1 [Phenformin] (partner 250 µM)
Summary of the method: as §1

Ruxolitinib + Navitoclax = compound: N#CC[C@H](C1CCCC1)n1cc(-c2ncnc3[nH]ccc23)cn1 [Ruxolitinib] + CC1(C)CCC(c2ccc(Cl)cc2)=C(CN2CCN(c3ccc(C(=O)NS(=O)(=O)c4ccc(N[C@H](CCN5CCOCC5)CSc5ccccc5)c(S(=O)(=O)C(F)(F)F)c4)cc3)CC2)C1 [Navitoclax] (partner 0.5 µM)
Summary of the method: as §1

## HCC-78
Ruxolitinib + Olaparib; first compound 0.08 µM
  relative viability: 0.779
Ruxolitinib + Olaparib; first compound 0.253 µM
  relative viability: 0.872
Ruxolitinib + Olaparib; first compound 0.8 µM
  relative viability: 0.897
Ruxolitinib + Olaparib; first compound 2.53 µM
  relative viability: 0.866
Ruxolitinib + Olaparib; first compound 8 µM
  relative viability: 0.934
VE-821 + Trametinib; first compound 0.08 µM
  relative viability: 0.816
VE-821 + Trametinib; first compound 0.253 µM
  relative viability: 0.646
VE-821 + Trametinib; first compound 0.8 µM
  relative viability: 0.689
VE-821 + Trametinib; first compound 2.53 µM
  relative viability: 0.855
VE-821 + Trametinib; first compound 8 µM
  relative viability: 0.917
Ruxolitinib + Phenformin; first compound 0.08 µM
  relative viability: 0.756
Ruxolitinib + Phenformin; first compound 0.253 µM
  relative viability: 0.563
Ruxolitinib + Phenformin; first compound 0.8 µM
  relative viability: 0.788
Ruxolitinib + Phenformin; first compound 2.53 µM
  relative viability: 0.662
Ruxolitinib + Phenformin; first compound 8 µM
  relative viability: 0.729
Ruxolitinib + Navitoclax; first compound 0.08 µM
  relative viability: 0.663
Ruxolitinib + Navitoclax; first compound 0.253 µM
  relative viability: 0.528
Ruxolitinib + Navitoclax; first compound 0.8 µM
  relative viability: 0.692
Ruxolitinib + Navitoclax; first compound 2.53 µM
  relative viability: 0.604
Ruxolitinib + Navitoclax; first compound 8 µM
  relative viability: 0.702

## HCC-366
Ruxolitinib + Olaparib; first compound 0.08 µM
  relative viability: 0.424
Ruxolitinib + Olaparib; first compound 0.253 µM
  relative viability: 0.417
Ruxolitinib + Olaparib; first compound 0.8 µM
  relative viability: 0.39
Ruxolitinib + Olaparib; first compound 2.53 µM
  relative viability: 0.287
Ruxolitinib + Olaparib; first compound 8 µM
  relative viability: 0.197
VE-821 + Trametinib; first compound 0.08 µM
  relative viability: 0.38
VE-821 + Trametinib; first compound 0.253 µM
  relative viability: 0.381
VE-821 + Trametinib; first compound 0.8 µM
  relative viability: 0.293
VE-821 + Trametinib; first compound 2.53 µM
  relative viability: 0.13
VE-821 + Trametinib; first compound 8 µM
  relative viability: 0.0642
Ruxolitinib + Phenformin; first compound 0.08 µM
  relative viability: 0.584
Ruxolitinib + Phenformin; first compound 0.253 µM
  relative viability: 0.654
Ruxolitinib + Phenformin; first compound 0.8 µM
  relative viability: 0.667
Ruxolitinib + Phenformin; first compound 2.53 µM
  relative viability: 0.542
Ruxolitinib + Phenformin; first compound 8 µM
  relative viability: 0.472
Ruxolitinib + Navitoclax; first compound 0.08 µM
  relative viability: 1.14
Ruxolitinib + Navitoclax; first compound 0.253 µM
  relative viability: 1.05
Ruxolitinib + Navitoclax; first compound 0.8 µM
  relative viability: 1.05
Ruxolitinib + Navitoclax; first compound 2.53 µM
  relative viability: 0.965
Ruxolitinib + Navitoclax; first compound 8 µM
  relative viability: 0.993

## HCC-827
Ruxolitinib + Olaparib; first compound 0.253 µM
  relative viability: 0.469
Ruxolitinib + Olaparib; first compound 0.8 µM
  relative viability: 0.469
Ruxolitinib + Olaparib; first compound 2.53 µM
  relative viability: 0.49
Ruxolitinib + Olaparib; first compound 8 µM
  relative viability: 0.594
VE-821 + Trametinib; first compound 0.08 µM
  relative viability: 0.613
VE-821 + Trametinib; first compound 0.253 µM
  relative viability: 0.524
VE-821 + Trametinib; first compound 0.8 µM
  relative viability: 0.565
VE-821 + Trametinib; first compound 2.53 µM
  relative viability: 0.52
VE-821 + Trametinib; first compound 8 µM
  relative viability: 0.499
Ruxolitinib + Phenformin; first compound 0.253 µM
  relative viability: 0.35
Ruxolitinib + Phenformin; first compound 0.8 µM
  relative viability: 0.32
Ruxolitinib + Phenformin; first compound 2.53 µM
  relative viability: 0.304
Ruxolitinib + Phenformin; first compound 8 µM
  relative viability: 0.411
Ruxolitinib + Navitoclax; first compound 0.253 µM
  relative viability: 0.863
Ruxolitinib + Navitoclax; first compound 0.8 µM
  relative viability: 0.908
Ruxolitinib + Navitoclax; first compound 2.53 µM
  relative viability: 0.857
Ruxolitinib + Navitoclax; first compound 8 µM
  relative viability: 0.845

## HOP-62
Ruxolitinib + Olaparib; first compound 0.253 µM
  relative viability: 0.389
Ruxolitinib + Olaparib; first compound 0.8 µM
  relative viability: 0.381
Ruxolitinib + Olaparib; first compound 2.53 µM
  relative viability: 0.315
Ruxolitinib + Olaparib; first compound 8 µM
  relative viability: 0.416
VE-821 + Trametinib; first compound 0.08 µM
  relative viability: 0.402
VE-821 + Trametinib; first compound 0.253 µM
  relative viability: 0.413
VE-821 + Trametinib; first compound 0.8 µM
  relative viability: 0.351
VE-821 + Trametinib; first compound 2.53 µM
  relative viability: 0.403
VE-821 + Trametinib; first compound 8 µM
  relative viability: 0.429
Ruxolitinib + Phenformin; first compound 0.08 µM
  relative viability: 0.678
Ruxolitinib + Phenformin; first compound 0.253 µM
  relative viability: 0.629
Ruxolitinib + Phenformin; first compound 0.8 µM
  relative viability: 0.699
Ruxolitinib + Phenformin; first compound 2.53 µM
  relative viability: 0.668
Ruxolitinib + Phenformin; first compound 8 µM
  relative viability: 0.63
Ruxolitinib + Navitoclax; first compound 0.08 µM
  relative viability: 1.02
Ruxolitinib + Navitoclax; first compound 0.253 µM
  relative viability: 1.17
Ruxolitinib + Navitoclax; first compound 0.8 µM
  relative viability: 1.11
Ruxolitinib + Navitoclax; first compound 2.53 µM
  relative viability: 1
Ruxolitinib + Navitoclax; first compound 8 µM
  relative viability: 1.11

## IA-LM
Ruxolitinib + Olaparib; first compound 0.08 µM
  relative viability: 0.98
Ruxolitinib + Olaparib; first compound 0.253 µM
  relative viability: 0.867
Ruxolitinib + Olaparib; first compound 0.8 µM
  relative viability: 0.805
Ruxolitinib + Olaparib; first compound 2.53 µM
  relative viability: 0.819
Ruxolitinib + Olaparib; first compound 8 µM
  relative viability: 0.669
Ruxolitinib + Navitoclax; first compound 0.08 µM
  relative viability: 0.821
Ruxolitinib + Navitoclax; first compound 0.253 µM
  relative viability: 0.85
Ruxolitinib + Navitoclax; first compound 0.8 µM
  relative viability: 0.913
Ruxolitinib + Navitoclax; first compound 2.53 µM
  relative viability: 0.743
Ruxolitinib + Navitoclax; first compound 8 µM
  relative viability: 0.395

## LC-2-ad
Ruxolitinib + Olaparib; first compound 0.08 µM
  relative viability: 0.797
Ruxolitinib + Olaparib; first compound 0.253 µM
  relative viability: 0.743
Ruxolitinib + Olaparib; first compound 0.8 µM
  relative viability: 0.792
Ruxolitinib + Olaparib; first compound 2.53 µM
  relative viability: 0.801
Ruxolitinib + Olaparib; first compound 8 µM
  relative viability: 0.624
VE-821 + Trametinib; first compound 0.08 µM
  relative viability: 0.985
VE-821 + Trametinib; first compound 0.253 µM
  relative viability: 0.886
VE-821 + Trametinib; first compound 0.8 µM
  relative viability: 0.879
VE-821 + Trametinib; first compound 2.53 µM
  relative viability: 0.912
VE-821 + Trametinib; first compound 8 µM
  relative viability: 0.956
Ruxolitinib + Phenformin; first compound 0.253 µM
  relative viability: 0.515
Ruxolitinib + Phenformin; first compound 0.8 µM
  relative viability: 0.561
Ruxolitinib + Phenformin; first compound 2.53 µM
  relative viability: 0.553
Ruxolitinib + Phenformin; first compound 8 µM
  relative viability: 0.456
Ruxolitinib + Navitoclax; first compound 0.08 µM
  relative viability: 0.376
Ruxolitinib + Navitoclax; first compound 0.253 µM
  relative viability: 0.435
Ruxolitinib + Navitoclax; first compound 0.8 µM
  relative viability: 0.444
Ruxolitinib + Navitoclax; first compound 2.53 µM
  relative viability: 0.257
Ruxolitinib + Navitoclax; first compound 8 µM
  relative viability: 0.243

## LCLC-97TM1
Ruxolitinib + Olaparib; first compound 0.08 µM
  relative viability: 0.367
Ruxolitinib + Olaparib; first compound 0.253 µM
  relative viability: 0.292
Ruxolitinib + Olaparib; first compound 0.8 µM
  relative viability: 0.331
Ruxolitinib + Olaparib; first compound 2.53 µM
  relative viability: 0.417
Ruxolitinib + Olaparib; first compound 8 µM
  relative viability: 0.295
VE-821 + Trametinib; first compound 0.08 µM
  relative viability: 0.225
VE-821 + Trametinib; first compound 0.253 µM
  relative viability: 0.152
VE-821 + Trametinib; first compound 0.8 µM
  relative viability: 0.194
VE-821 + Trametinib; first compound 2.53 µM
  relative viability: 0.227
VE-821 + Trametinib; first compound 8 µM
  relative viability: 0.217
Ruxolitinib + Phenformin; first compound 0.08 µM
  relative viability: 0.438
Ruxolitinib + Phenformin; first compound 0.253 µM
  relative viability: 0.43
Ruxolitinib + Phenformin; first compound 0.8 µM
  relative viability: 0.507
Ruxolitinib + Phenformin; first compound 2.53 µM
  relative viability: 0.428
Ruxolitinib + Phenformin; first compound 8 µM
  relative viability: 0.378
Ruxolitinib + Navitoclax; first compound 0.08 µM
  relative viability: 0.459
Ruxolitinib + Navitoclax; first compound 0.253 µM
  relative viability: 0.384
Ruxolitinib + Navitoclax; first compound 0.8 µM
  relative viability: 0.537
Ruxolitinib + Navitoclax; first compound 2.53 µM
  relative viability: 0.492
Ruxolitinib + Navitoclax; first compound 8 µM
  relative viability: 0.354

## LCLC-103H
Ruxolitinib + Olaparib; first compound 0.08 µM
  relative viability: 0.774
Ruxolitinib + Olaparib; first compound 0.253 µM
  relative viability: 0.753
Ruxolitinib + Olaparib; first compound 0.8 µM
  relative viability: 0.786
Ruxolitinib + Olaparib; first compound 2.53 µM
  relative viability: 0.837
Ruxolitinib + Olaparib; first compound 8 µM
  relative viability: 0.758
VE-821 + Trametinib; first compound 0.08 µM
  relative viability: 0.748
VE-821 + Trametinib; first compound 0.253 µM
  relative viability: 0.662
VE-821 + Trametinib; first compound 0.8 µM
  relative viability: 0.675
VE-821 + Trametinib; first compound 2.53 µM
  relative viability: 0.68
VE-821 + Trametinib; first compound 8 µM
  relative viability: 0.663
Ruxolitinib + Phenformin; first compound 0.08 µM
  relative viability: 0.349
Ruxolitinib + Phenformin; first compound 0.253 µM
  relative viability: 0.326
Ruxolitinib + Phenformin; first compound 0.8 µM
  relative viability: 0.298
Ruxolitinib + Phenformin; first compound 2.53 µM
  relative viability: 0.337
Ruxolitinib + Phenformin; first compound 8 µM
  relative viability: 0.286

## LK-2
Ruxolitinib + Olaparib; first compound 0.08 µM
  relative viability: 0.553
Ruxolitinib + Olaparib; first compound 0.253 µM
  relative viability: 0.701
Ruxolitinib + Olaparib; first compound 0.8 µM
  relative viability: 0.893
Ruxolitinib + Olaparib; first compound 2.53 µM
  relative viability: 0.724
Ruxolitinib + Olaparib; first compound 8 µM
  relative viability: 0.52
VE-821 + Trametinib; first compound 0.08 µM
  relative viability: 1.02
VE-821 + Trametinib; first compound 0.253 µM
  relative viability: 0.775
VE-821 + Trametinib; first compound 0.8 µM
  relative viability: 0.734
VE-821 + Trametinib; first compound 2.53 µM
  relative viability: 0.897
VE-821 + Trametinib; first compound 8 µM
  relative viability: 0.818
Ruxolitinib + Phenformin; first compound 0.08 µM
  relative viability: 0.337
Ruxolitinib + Phenformin; first compound 0.253 µM
  relative viability: 0.499
Ruxolitinib + Phenformin; first compound 0.8 µM
  relative viability: 0.359
Ruxolitinib + Phenformin; first compound 2.53 µM
  relative viability: 0.292
Ruxolitinib + Phenformin; first compound 8 µM
  relative viability: 0.692
Ruxolitinib + Navitoclax; first compound 0.253 µM
  relative viability: 0.719
Ruxolitinib + Navitoclax; first compound 0.8 µM
  relative viability: 1.11
Ruxolitinib + Navitoclax; first compound 2.53 µM
  relative viability: 0.9
Ruxolitinib + Navitoclax; first compound 8 µM
  relative viability: 0.708
